Assay results reported in patent US9562031B1, “Phenethyldihydrobenzodioxolones and methods of use” (Sequoia Sciences, Inc., priority 2015, dated 2017).

Key:
LOX-IMVI cells = experiment: antiproliferation assay, LOX-IMVI; type: cell-based; settings: Homo sapiens
Description: (§1) For the antiproliferation assay, NCI-H460 (large cell lung carcinoma) or M14 (amelanotic melanoma) cells were grown in RPMI-1640 with 10% FBS supplemented with L-glutamine and HEPES. Cells were seeded into 96-well plates at 5×10^2 to 5×10^4 cells/well and allowed to adhere overnight; the medium was then removed. A stock solution of test compound in DMSO was diluted in medium to generate a series of working solutions. Aliquots (100 μl) of the working solutions were then added to the appropriate test wells to expose cells to the final concentrations of compound in a total volume of 100 μl. Seven different concentrations were tested, with 2-5 wells per concentration. Camptothecin was used as a positive control; wells containing vehicle without compound were used as negative controls. Plates were kept for 72 h in a 37° C., 5% CO2 incubator. After incubation, viable cells were detected with the CELLTITER 96 AQueous Non-Radioactive Cell Proliferation Assay (Promega), and IC50 values were determined using GraphPad Prism 5 software.
(§2) Antiproliferation of several of the active compounds was tested against additional cell lines.

PC-3 cells = experiment: antiproliferation assay, PC-3; type: cell-based; settings: Homo sapiens
Description: as §1, §2

SK-Mel-2 cells = experiment: antiproliferation assay, SK-Mel-2; type: cell-based; settings: Homo sapiens
Description: as §1, §2

HCT-116 cells = experiment: antiproliferation assay, HCT-116; type: cell-based; settings: Homo sapiens
Description: as §1, §2

U-87 MG cells = experiment: antiproliferation assay, U-87 MG; type: cell-based; settings: Homo sapiens
Description: as §1, §2

A549 cells = experiment: antiproliferation assay, A549; type: cell-based; settings: Homo sapiens
Description: as §1, §2

SK-Mel-5 cells = experiment: antiproliferation assay, SK-Mel-5; type: cell-based; settings: Homo sapiens
Description: as §1, §2

[1] = tested on: M14 (amelanotic melanoma) cells; experiment: antiproliferation assay (72 h, CELLTITER 96), M14; type: cell-based, human; settings: Homo sapiens; Table 4
In short: (§3)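 Human M14 melanoma and NCI-H460 lung carcinoma cells in RPMI-1640/10% FBS, seeded at 5×10^2–5×10^4 cells/well and adhered overnight, then exposed to seven compound concentrations for 72 h at 37 °C. Viable cells read by CellTiter 96 AQueous (MTS); IC50 = concentration giving 50% of maximal growth inhibition.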

[2] = tested on: NCI-H460 (large cell lung carcinoma) cells; experiment: antiproliferation assay (72 h, CELLTITER 96), NCI-H460; type: cell-based, human; settings: Homo sapiens, NCI-H460, Table 4; read-out: NCI-H460 IC50
In short: as §3

UACC-62 cells = experiment: antiproliferation assay, UACC-62; type: cell-based; settings: Homo sapiens
Description: as §1, §2

NCI-H526 cells = experiment: antiproliferation assay, NCI-H526; type: cell-based; settings: Homo sapiens
Description: as §1, §2

NCI-H441 cells = experiment: antiproliferation assay, NCI-H441; type: cell-based; settings: Homo sapiens
Description: as §1, §2

NCI/ADR-RES cells = experiment: antiproliferation assay, NCI/ADR-RES; type: cell-based; settings: Homo sapiens
Description: as §1, §2
Compound 4 was tested for antiproliferation activity against several paclitaxel-resistant human cancer cell lines.

NCI-H187 cells = experiment: antiproliferation assay, NCI-H187; type: cell-based; settings: Homo sapiens
Description: as §1, §2

Row | SMILES | IC50 (LOX-IMVI cells) [nM] | IC50 (PC-3 cells) [nM] | IC50 (SK-Mel-2 cells) [nM] | IC50 (HCT-116 cells) [nM] | IC50 (U-87 MG cells) [nM] | IC50 (A549 cells) [nM] | IC50 (SK-Mel-5 cells) [nM] | IC50 [1] [nM] | IC50 [2] [nM] | IC50 (UACC-62 cells) [nM] | IC50 (NCI-H526 cells) [nM] | IC50 (NCI-H441 cells) [nM] | IC50 (NCI/ADR-RES cells) [nM] | IC50 (NCI-H187 cells) [nM]
1 | C=CC[C@H]1C[C@]2([C@H](C)Cc3ccc(OC)cc3)OCOC2=CC1=O [Compound 26, (6S,7aR)-6-allyl-7a-((R)-1-(4-methoxyphenyl)propan-2-yl)-7,7a-dihydrobenzo[d][1,3]dioxol-5(6H)-one] | 150 | 66 | 110 | 22 | 100 | 110 | 34 | 81 | 75 | 96 |  |  |  | 
2 | C=CC[C@H]1C[C@]2([C@@H](C)Cc3ccc(OC)c(O)c3)OCOC2=CC1=O [Compound 32, (6S,7aR)-6-allyl-7a-((S)-1-(3-hydroxy-4-methoxyphenyl)propan-2-yl)-7,7a-dihydrobenzo[d][1,3]dioxol-5(6H)-one] | 12 |  |  | 13 |  |  |  | 7.9 | 83 |  | 79 | 140 | 38 | 46
